According to the supplement of paper PMC5908809:

How the values were obtained:
SNK-6 (IL-2 2.5 ng/mL) [1] = assay: drug sensitivity score (DSS) (DSS units); higher = more sensitive; extreme values may be limits of the assay; details: 72 h
KAI3 (IL-2 2.5 ng/mL) [2] = assay: as above; details: 72 h
[3] = test system: normal primary NK cells, pool 3 (3 donors) (IL-2 2.5 ng/mL); assay: as above; details: 72 h
NK-YS (IL-2 2.5 ng/mL) [4] = assay: as above; details: 72 h
[5] = test system: normal primary NK cells, pool 2 (3 donors) (IL-2 2.5 ng/mL); assay: as above; details: 72 h
KHYG-1 (IL-2 2.5 ng/mL) [6] = assay: as above; details: 72 h
DERL-7 (IL-2 2.5 ng/mL) [7] = assay: as above; details: 72 h
NK-92 (IL-2 2.5 ng/mL) [8] = assay: as above; details: 72 h
[9] = test system: normal primary NK cells, pool 1 (3 donors) (IL-2 2.5 ng/mL); assay: as above; details: 72 h
[10] = test system: normal primary NK cells, pool 1 (3 donors), resting (IL-2 0 ng/mL); assay: as above; details: 72 h
IMC-1 (IL-2 20 ng/mL) [11] = assay: as above; details: 72 h
YT (IL-2 2.5 ng/mL) [12] = assay: as above; details: 72 h
NKL (IL-2 2.5 ng/mL) [13] = assay: as above; details: 72 h
SNK-6 (IL-2 2.5 ng/mL) [14] = assay: percent inhibition of viability; higher = more inhibition; details: 72 h
KAI3 (IL-2 2.5 ng/mL) [15] = assay: as above; details: 72 h
[16] = test system: normal primary NK cells, pool 3 (3 donors) (IL-2 2.5 ng/mL); assay: as above; details: 72 h
NK-YS (IL-2 2.5 ng/mL) [17] = assay: as above; details: 72 h
[18] = test system: normal primary NK cells, pool 2 (3 donors) (IL-2 2.5 ng/mL); assay: as above; details: 72 h
KHYG-1 (IL-2 2.5 ng/mL) [19] = assay: as above; details: 72 h
DERL-7 (IL-2 2.5 ng/mL) [20] = assay: as above; details: 72 h
NK-92 (IL-2 2.5 ng/mL) [21] = assay: as above; details: 72 h
[22] = test system: normal primary NK cells, pool 1 (3 donors) (IL-2 2.5 ng/mL); assay: as above; details: 72 h
[23] = test system: normal primary NK cells, pool 1 (3 donors), resting (IL-2 0 ng/mL); assay: as above; details: 72 h
IMC-1 (IL-2 20 ng/mL) [24] = assay: as above; details: 72 h
YT (IL-2 2.5 ng/mL) [25] = assay: as above; details: 72 h
NKL (IL-2 2.5 ng/mL) [26] = assay: as above; details: 72 h
[27] = test system: normal NK cells expanded with K562-aAPC; assay: drug sensitivity score (DSS) (DSS units); higher = more sensitive; extreme values may be limits of the assay; details: 72 h; IL-2 2.5 ng/mL
Experimental: (§1)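 Drug sensitivity and resistance testing on K562-aAPC-expanded normal NK cells: 5 concentrations (10-fold steps over a 10,000-fold range), 72 h at 37 °C, viability by CellTiter-Glo normalised to DMSO and benzethonium chloride controls; DSS from the fitted curve.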

[28] = test system: normal NK cells expanded with K562-aAPC; assay: percent inhibition of viability; higher = more inhibition; details: 72 h, IL-2 2.5 ng/mL
Experimental: as §1

Cn1cc(-c2ccc3nnc(Sc4ccc5ncccc5c4)n3n2)cn1 [SGX-523] (max concentration tested 5000 nM)
Details	drug sensitivity score
DERL-7 (IL-2 2.5 ng/mL) [7]	0.58
IMC-1 (IL-2 20 ng/mL) [11]	0.89
KAI3 (IL-2 2.5 ng/mL) [2]	0
KHYG-1 (IL-2 2.5 ng/mL) [6]	0.89
NK-92 (IL-2 2.5 ng/mL) [8]	0
NK-YS (IL-2 2.5 ng/mL) [4]	0
NKL (IL-2 2.5 ng/mL) [13]	0
SNK-6 (IL-2 2.5 ng/mL) [1]	0
YT (IL-2 2.5 ng/mL) [12]	0
[3]	0.04
[5]	0.02
[9]	0
[10]	2.87
[27]	0.89

percent inhibition of viability [%]
Details	0.5 nM	5 nM	50 nM	500 nM	5000 nM
DERL-7 (IL-2 2.5 ng/mL) [20]	3.14	1.32	-1.44	5.03	14.4
IMC-1 (IL-2 20 ng/mL) [24]	-3.56	-0.25	-5.07	-2.74	-1.91
KAI3 (IL-2 2.5 ng/mL) [15]	-4.24	-1.01	0.45	4.1	9.78
KHYG-1 (IL-2 2.5 ng/mL) [19]	-5.57	-5.37	-9.26	-3.51	-7.2
NK-92 (IL-2 2.5 ng/mL) [21]	0.34	-0.3	-4.47	-3.94	1.25
NK-YS (IL-2 2.5 ng/mL) [17]	1.09	-7.03	-6.25	-1.89	-5.01
NKL (IL-2 2.5 ng/mL) [26]	3.77	-3.27	-2.38	-4.59	3.26
SNK-6 (IL-2 2.5 ng/mL) [14]	3.69	0.4	-1.97	8.43	7.74
YT (IL-2 2.5 ng/mL) [25]	-2.71	-0.74	-1.93	1.35	-0.07
[16]	3.88	-2.63	1.81	1.46	11.1
[18]	1.04	-8.92	-3.62	-0.26	11.5
[22]	-8.19	-11.2	-7.5	-10.9	5.13
[23]	-11.2	-4.96	17.1	10.2	32.6
[28]	-2.93	-10.2	-5.18	-9.17	-2.25

CC(C)C[C@H](NC(=O)[C@H](CCc1ccccc1)NC(=O)CN1CCOCC1)C(=O)N[C@@H](Cc1ccccc1)C(=O)N[C@@H](CC(C)C)C(=O)[C@@]1(C)CO1 [Carfilzomib] (max concentration tested 1000 nM)
Details	drug sensitivity score
DERL-7 (IL-2 2.5 ng/mL) [7]	37.2
IMC-1 (IL-2 20 ng/mL) [11]	30.3
KAI3 (IL-2 2.5 ng/mL) [2]	34.8
KHYG-1 (IL-2 2.5 ng/mL) [6]	30.9
NK-92 (IL-2 2.5 ng/mL) [8]	33.1
NK-YS (IL-2 2.5 ng/mL) [4]	30.9
NKL (IL-2 2.5 ng/mL) [13]	29.9
SNK-6 (IL-2 2.5 ng/mL) [1]	31.1
YT (IL-2 2.5 ng/mL) [12]	30.6
[3]	31.4
[5]	33.4
[9]	34
[10]	34.1
[27]	29.7

percent inhibition of viability [%]
Details	0.1 nM	1 nM	10 nM	100 nM	1000 nM
DERL-7 (IL-2 2.5 ng/mL) [20]	0.47	55.2	101	101	101
IMC-1 (IL-2 20 ng/mL) [24]	-4.55	-1.82	100	101	101
KAI3 (IL-2 2.5 ng/mL) [15]	-4.59	28.8	101	105	107
KHYG-1 (IL-2 2.5 ng/mL) [19]	-8.88	2.3	101	105	105
NK-92 (IL-2 2.5 ng/mL) [21]	1.15	15.4	101	106	106
NK-YS (IL-2 2.5 ng/mL) [17]	-4.19	3.04	101	104	105
NKL (IL-2 2.5 ng/mL) [26]	-2.93	-11	102	106	108
SNK-6 (IL-2 2.5 ng/mL) [14]	-4.32	5.11	99.5	101	101
YT (IL-2 2.5 ng/mL) [25]	-5.39	1.26	100	105	105
[16]	-8.33	11.5	94.8	100	101
[18]	-2.72	22.8	97.1	99.5	99.7
[22]	-1.09	26.1	97.9	99.6	99.8
[23]	-8.37	33.8	94	98.4	98.3
[28]	-5.98	-4.15	96.8	101	101
